# Values of other authors, collected in patent US20210008095A1, “METHODS FOR TREATING MUSCULAR DYSTROPHY” (Sarepta Therapeutics, Inc., priority 2015, published 2021).
# How the values were obtained:
# [1] = system: patient cells; details: cited from earlier work
# [2] = system: mouse model of DMD; details: cited from earlier work
smiles,measurement,setting,value
O=C1CN(/N=C/c2ccc(-c3ccc([N+](=O)[O-])cc3)o2)C(O)=N1 [dantrolene],effect on antisense-mediated exon skipping,[1],enhance antisense-mediated exon skipping
same,effect on antisense-mediated exon skipping,[2],enhance antisense-mediated exon skipping
